The term IC50 denotes the point on the concentration scale where inhibition reaches its midpoint. A high value points to weaker potency.

For data set [1], the system named is RCC4. The data set can be described thus: Anticancer activity against human RCC4 cells after 48 hrs by XTT assay. Type of data set: functional, cell-based. The note with it: RCC4, 48 h. (In general: Tetrazolium dyes change colour on reduction, which living cells bring about.)
Data set [2] concerns MDA-MB-231. The data set can be described thus: Anticancer activity against human MDA-MB-231 cells after 48 hrs by XTT assay. Particulars: MDA-MB-231, 48 h. It is filed as functional, cell-based.
The nature of data set [3]: Micelle aggregation by the compound.
Data set [4] can be described thus: Solubility of the compound. Type of data set: physicochemical.
Data set [5] relates to RCC4. The experiment in a line: Induction of autophagy in human RCC4 cells assessed as increase in LC3 conversion at 1 mM after 48 hrs by Western blot method. Type of data set: functional, cell-based. On the technique in general: In western blotting, separated proteins are transferred to a membrane and probed.
For data set [6], the system named is RCC4. The data set can be described thus: Induction of autophagy in human RCC4 cells assessed as increase in LC3 cleavage at 20 uM after 48 hrs by Western blot method. Type of data set: functional, cell-based.
For data set [7], the system named is MDA-MB-231. The data set can be described thus: Potency index, ratio of AICAR IC50 to compound IC50 for human MDA-MB-231 cells. It is filed as functional.
Data set [8] in a line: Potency index, ratio of AICAR IC50 to compound IC50 for human RCC4 cells. Type of data set: functional.
Data set [9] concerns RCC4. The experiment in a line: Induction of apoptosis in human RCC4 cells assessed as PARP cleavage at 20 uM after 48 hrs by Western blot method. It is filed as functional, cell-based.
Data set [10] relates to RCC4. The experiment in a line: Induction of autophagy in human RCC4 cells assessed as increase in LC3 lipidation at 20 uM after 48 hrs by Western blot method. It is filed as functional, cell-based.
The subject of data set [11] is RCC4. The experiment in a line: Anticancer activity against human RCC4 cells at 50 uM after 48 hrs by XTT assay. Type of data set: functional, cell-based.
Data set [12] concerns MDA-MB-231. The experiment in a line: Anticancer activity against human MDA-MB-231 cells at 50 uM after 48 hrs by XTT assay. Type of data set: functional, cell-based.

Calls of active or inactive are those of the source. The rule behind the calls is not given here. Where only a bound is given, the exact number is not on record here.

With `CCS(=O)(=O)N(Cc1cn([C@@H]2O[C@H](COC(C)=O)[C@@H](OC(C)=O)[C@H](OC(C)=O)[C@H]2OC(C)=O)nn1)c1ccc(Cl)cc1`, the IC50 with RCC4 [1] and with MDA-MB-231 [2] was over 250 µM in each case.

As to `CCCCCCCCCCCCCCN(Cc1cn([C@@H]2O[C@H](COC(C)=O)[C@@H](OC(C)=O)[C@H]2OC(C)=O)nn1)S(C)(=O)=O`, the figures for the IC50 in the data set with RCC4 [1] and in the data set on MDA-MB-231 [2] were 29 µM and 31 µM, respectively. Further, the outcome in [3] was inactive. For the same compound, the solubility entry in data set [4] is reported as “Soluble”.

As to `CC(=O)OC[C@H]1O[C@@H](n2cc(CN(c3ccc(Cl)cc3)S(=O)(=O)c3ccccc3)nn2)[C@H](OC(C)=O)[C@@H](OC(C)=O)[C@@H]1OC(C)=O`, the results for the IC50 with RCC4 [1] and in the data set on MDA-MB-231 [2] were 115 µM and 135 µM, respectively.

With `COC(=O)CN(Cc1cn([C@@H]2O[C@H](COC(C)=O)[C@@H](OC(C)=O)[C@H](OC(C)=O)[C@H]2OC(C)=O)nn1)S(C)(=O)=O`, the IC50 with RCC4 [1] and in the data set with MDA-MB-231 [2] was over 250 µM in each case.

With `CCS(=O)(=O)N(Cc1cn([C@H]2O[C@H](CO)[C@@H](O[C@@H]3O[C@H](CO)[C@H](O)[C@H](O)[C@H]3O)[C@H](O)[C@H]2O)nn1)c1ccc(Cl)cc1`, the IC50 in the data set on RCC4 [1] amounted to 200 µM; in the data set on MDA-MB-231 [2], 215 µM.

`CC(=O)OC[C@H]1O[C@@H](n2cc(CN(c3ccccc3)S(C)(=O)=O)nn2)[C@H](OC(C)=O)[C@@H]1OC(C)=O`: the IC50 stood at 180 µM with RCC4 [1] and 250 µM in the data set on MDA-MB-231 [2].

Regarding `CS(=O)(=O)N(Cc1cn([C@@H]2O[C@H](CO)[C@@H](O[C@H]3O[C@H](CO)[C@@H](O)[C@H](O)[C@H]3O)[C@H](O)[C@H]2O)nn1)c1ccc(C#N)cc1`, the IC50 with RCC4 [1] and with MDA-MB-231 [2] was 250 µM throughout.

Regarding `CC(=O)OC[C@H]1O[C@@H](n2cc(CN(c3ccc(C#N)cc3)S(C)(=O)=O)nn2)[C@H](OC(C)=O)[C@@H](OC(C)=O)[C@@H]1O[C@H]1O[C@H](COC(C)=O)[C@@H](OC(C)=O)[C@H](OC(C)=O)[C@H]1OC(C)=O`, the IC50 in the data set with RCC4 [1] and in the data set with MDA-MB-231 [2] was 230 µM in each case.

`CCN(CC)CCNC(=O)c1c(C)[nH]c(/C=C2\C(=O)Nc3ccc(F)cc32)c1C` [SUNITINIB]: the 50% inhibitory concentration (IC50) was determined as 4 µM in the data set on RCC4 [1] and 6 µM with MDA-MB-231 [2].

For the compound `COC(=O)CN(Cc1cn([C@@H]2O[C@H](COC(C)=O)[C@@H](OC(C)=O)[C@H]2OC(C)=O)nn1)S(C)(=O)=O`, the results for the IC50 with RCC4 [1] and in the data set on MDA-MB-231 [2] were 125 µM and 250 µM, respectively.

`CC(=O)OC[C@H]1O[C@@H](n2cc(CN(c3ccc(C#N)cc3)S(C)(=O)=O)nn2)[C@H](OC(C)=O)[C@@H](OC(C)=O)[C@@H]1OC(C)=O`: the IC50 was 120 µM in the data set on RCC4 [1] and 215 µM in the data set with MDA-MB-231 [2].

As for `COc1cccc(N(Cc2cn([C@@H]3O[C@H](COC(C)=O)[C@@H](OC(C)=O)[C@H]3OC(C)=O)nn2)S(C)(=O)=O)c1`, the IC50 was 190 µM in the data set with RCC4 [1] and 160 µM with MDA-MB-231 [2].

For the compound `CCCCCCN(Cc1cn([C@@H]2O[C@H](COC(C)=O)[C@@H](OC(C)=O)[C@H]2OC(C)=O)nn1)S(C)(=O)=O`, the IC50 came to 140 µM in the data set with RCC4 [1] and 225 µM in the data set with MDA-MB-231 [2]. Further, in data set [3], the result was inactive. Moreover, the solubility result in [4] is “Soluble”.

On to `CC(=O)OC[C@H]1O[C@@H](n2cc(CN(c3ccc(C#N)cc3)S(C)(=O)=O)nn2)[C@@H](OC(C)=O)[C@@H](OC(C)=O)[C@@H]1OC(C)=O`, for which the IC50 was found to be 240 µM with RCC4 [1] and 230 µM in the data set on MDA-MB-231 [2].

Take `CC(=O)OC[C@H]1O[C@@H](n2cc(CN(c3ccc(Cl)cc3)S(=O)(=O)c3ccccc3)nn2)[C@H](OC(C)=O)[C@@H]1OC(C)=O`: the IC50 with RCC4 [1] and in the data set with MDA-MB-231 [2] was 250 µM each time.

Consider `NC(=O)c1ncn([C@@H]2O[C@H](CO)[C@@H](O)[C@H]2O)c1N` [ACADESINE], for which the values for the IC50 with RCC4 [1] and in the data set on MDA-MB-231 [2] were 250 µM and 1000 µM, respectively. The outcome in the data set with RCC4 [5] was Active.

With `CS(=O)(=O)N(Cc1cn([C@@H]2O[C@H](CO)[C@@H](O)[C@H]2O)nn1)c1ccc(C#N)cc1`, the IC50 in the data set with RCC4 [1] was 250 µM; in the data set on MDA-MB-231 [2], over 250 µM.

As for `CC(=O)OC[C@H]1O[C@@H](n2cc(CN(c3ccc(C#N)cc3)S(C)(=O)=O)nn2)[C@H](OC(C)=O)[C@@H]1OC(C)=O`, the IC50 is 235 µM in the data set on RCC4 [1] and 100 µM in the data set with MDA-MB-231 [2].

As for `CC(=O)OC[C@H]1O[C@@H](n2cc(CN(c3ccc(C#N)cc3)S(C)(=O)=O)nn2)[C@H](OC(C)=O)[C@@H](OC(C)=O)[C@H]1OC(C)=O`, the figures for the IC50 in the data set with RCC4 [1] and in the data set on MDA-MB-231 [2] were 170 µM and 100 µM, respectively.

Turning to `CC(=O)OC[C@H]1O[C@@H](n2cc(CN(c3ccccc3)S(=O)(=O)c3ccccc3)nn2)[C@H](OC(C)=O)[C@@H]1OC(C)=O`, the IC50 in the data set on RCC4 [1] was determined as 150 µM; in the data set with MDA-MB-231 [2], 100 µM.

For `COC(=O)C(C)(C)N(Cc1cn([C@@H]2O[C@H](COC(C)=O)[C@@H](OC(C)=O)[C@H](OC(C)=O)[C@H]2OC(C)=O)nn1)S(C)(=O)=O`, the results for the IC50 in the data set on RCC4 [1] and in the data set with MDA-MB-231 [2] were 240 µM and 225 µM, respectively.

`CC(=O)OC[C@H]1O[C@@H](n2cc(CN(c3ccc(C)cc3)S(=O)(=O)c3ccccc3)nn2)[C@H](OC(C)=O)[C@@H]1OC(C)=O`: the IC50 was found to be 230 µM with RCC4 [1] and 205 µM in the data set on MDA-MB-231 [2].

As to `CC(=O)OC[C@H]1O[C@@H](O[C@H]2[C@H](OC(C)=O)[C@@H](OC(C)=O)[C@@H](n3cc(CN(c4ccc(C#N)cc4)S(C)(=O)=O)nn3)O[C@@H]2COC(C)=O)[C@H](OC(C)=O)[C@@H](OC(C)=O)[C@H]1OC(C)=O`, the figures for the IC50 with RCC4 [1] and with MDA-MB-231 [2] were 50 µM and 70 µM, respectively.

With `CCS(=O)(=O)N(Cc1cn([C@H]2O[C@H](COC(C)=O)[C@@H](O[C@@H]3O[C@H](COC(C)=O)[C@H](OC(C)=O)[C@H](OC(C)=O)[C@H]3OC(C)=O)[C@H](OC(C)=O)[C@H]2OC(C)=O)nn1)c1ccc(Cl)cc1`, the IC50 came out at 160 µM in the data set with RCC4 [1] and 150 µM in the data set on MDA-MB-231 [2].

For the compound `CS(=O)(=O)N(Cc1cn([C@H]2O[C@H](CO)[C@@H](O[C@@H]3O[C@H](CO)[C@H](O)[C@H](O)[C@H]3O)[C@H](O)[C@H]2O)nn1)c1ccc(C#N)cc1`, the IC50 with RCC4 [1] amounted to 120 µM; in the data set with MDA-MB-231 [2], 250 µM.

For the compound `CCCCN(Cc1cn([C@@H]2O[C@H](COC(C)=O)[C@@H](OC(C)=O)[C@H]2OC(C)=O)nn1)S(C)(=O)=O`, the IC50 in the data set with RCC4 [1] turned out to be 250 µM; with MDA-MB-231 [2], 225 µM. In data set [3], the outcome was inactive. In data set [4], the solubility result is on record as “Soluble”.

Turning to `COc1cccc(N(Cc2cn([C@@H]3O[C@H](COC(C)=O)[C@@H](OC(C)=O)[C@H](OC(C)=O)[C@H]3OC(C)=O)nn2)S(C)(=O)=O)c1`, the IC50 in the data set with RCC4 [1] stood at 200 µM; with MDA-MB-231 [2], 220 µM.

On to `COC(=O)C(C)(C)N(Cc1cn([C@@H]2O[C@H](COC(C)=O)[C@@H](OC(C)=O)[C@H]2OC(C)=O)nn1)S(C)(=O)=O`, for which the results for the IC50 in the data set on RCC4 [1] and with MDA-MB-231 [2] were 50 µM and 240 µM, respectively.

Consider `CCCCCCCCCCCCCCCCN(Cc1cn([C@@H]2O[C@H](COC(C)=O)[C@@H](OC(C)=O)[C@H]2OC(C)=O)nn1)S(C)(=O)=O`, for which the IC50 with RCC4 [1] amounted to 13 µM; in the data set on MDA-MB-231 [2], 15 µM. The outcome in the data set with RCC4 [6], in the data set on RCC4 [9], in the data set with RCC4 [10], with RCC4 [11] and in the data set on MDA-MB-231 [12] was Active. For the same compound, the “Ratio IC50” value with MDA-MB-231 [7] came to 66; in [8], 19. The outcome in data set [3] was inactive. Moreover, in data set [4], the solubility entry is recorded as “Soluble”.

As to `CCS(=O)(=O)N(Cc1cn([C@@H]2O[C@H](COC(C)=O)[C@@H](OC(C)=O)[C@H](OC(C)=O)[C@H]2OC(C)=O)nn1)c1ccccc1`, the values for the IC50 in the data set with RCC4 [1] and with MDA-MB-231 [2] were 175 µM and 155 µM, respectively.

Turning to `CS(=O)(=O)N(Cc1cn([C@@H]2O[C@H](CO)[C@@H](O)[C@H](O)[C@H]2O)nn1)c1ccc(C#N)cc1`, the IC50 with RCC4 [1] was 200 µM; in the data set on MDA-MB-231 [2], 185 µM.

For the compound `CC(=O)OC[C@H]1O[C@@H](n2cc(CN(c3ccc(C)cc3)S(=O)(=O)c3ccccc3)nn2)[C@H](OC(C)=O)[C@@H](OC(C)=O)[C@@H]1OC(C)=O`, the IC50 worked out at 130 µM in the data set with RCC4 [1] and 180 µM in the data set on MDA-MB-231 [2].

As for `CCS(=O)(=O)N(Cc1cn([C@@H]2O[C@H](COC(C)=O)[C@@H](OC(C)=O)[C@H]2OC(C)=O)nn1)c1ccc(Cl)cc1`, the IC50 in the data set on RCC4 [1] and with MDA-MB-231 [2] was 250 µM each time.

Source of the values: ChEMBL document CHEMBL4049416, “Synthesis and anti-cancer activities of new sulfonamides 4-substituted-triazolyl nucleosides” (Bioorg Med Chem Lett, 2017).
